Measured values taken from ChEMBL document CHEMBL1148072, “Ellagitannins and complex tannins from Quercus petraea bark” (J Nat Prod, 1994).

Assays:
Blood = test: Astringency in human blood by heme-analysis relative to tannin; assay type: functional
Caenorhabditis elegans = test: Anthelmintic activity against Caenorhabditis elegans; assay type: functional, organism-based

| IC50 (Caenorhabditis elegans) [ppm] | Structure (SMILES) | Activity (Blood) |
| --- | --- | --- |
| – | O=C1OC[C@H]2OC(=O)c3cc(O)c(O)c(O)c3-c3c(O)c(O)c(O)c4c3C(=O)O[C@H]([C@@H]3OC(=O)c5c-4c(O)c(O)c(O)c5[C@@H]3c3c(O)cc(O)c4c3O[C@H](c3ccc(O)c(O)c3)[C@@H](O)C4)[C@H]2OC(=O)c2cc(O)c(O)c(O)c2-c2c1cc(O)c(O)c2O [ACUTISSIMIN A] | 0.28 |
| – | O=C1OC[C@H]2OC(=O)c3cc(O)c(O)c(O)c3-c3c(O)c(O)c(O)c4c3C(=O)O[C@H]([C@@H]3OC(=O)c5c-4c(O)c(O)c(O)c5[C@@H]3c3c(O)cc(O)c4c3O[C@H](c3cc(O)c(O)c(O)c3)[C@@H](O)C4)[C@H]2OC(=O)c2cc(O)c(O)c(O)c2-c2c1cc(O)c(O)c2O [EUGENIGRANDIN A] | 0.46 |
| – | O=C1OC[C@H]2OC(=O)c3cc(O)c(O)c(O)c3-c3c(O)c(O)c(O)c4c3C(=O)O[C@H]([C@@H]3OC(=O)c5c-4c(O)c(O)c(O)c5[C@@H]3c3c(O)cc4c(c3O)C[C@H](O)[C@@H](c3cc(O)c(O)c(O)c3)O4)[C@H]2OC(=O)c2cc(O)c(O)c(O)c2-c2c1cc(O)c(O)c2O [GUAJAVIN B] | 0.44 |
| 10 | COC(=O)Nc1nc2cc(C(=O)c3ccccc3)ccc2[nH]1 [MEBENDAZOLE] | – |
| – | O=C1OC[C@H]2OC(O)[C@@H]3OC(=O)c4cc(O)c(O)c(O)c4-c4c(cc(O)c(O)c4O)C(=O)O[C@H]3[C@@H]2OC(=O)c2cc(O)c(O)c(O)c2-c2c1cc(O)c(O)c2O (stereo partly specified) [PEDUNCULAGIN] | 0.2 |
| – | O=C1OCC2OC(=O)c3cc(O)c(O)c(O)c3-c3c(O)c(O)c(O)c4c3C(=O)OC(C2OC(=O)c2cc(O)c(O)c(O)c2-c2c1cc(O)c(O)c2O)C1OC(=O)c2c-4c(O)c(O)c(O)c2C1O (stereo unspecified) [VESCALAGIN] | 0.24 |
